Laboratory results: patent US20040110727A1, “Aldehyde-releasing compounds” (priority 2000, published 2004)
Where two headings read alike, the source gives them in different places.

Columns and labels:
[1] = tested on: genomic DNA of IMR-32 cells; settings: for adduct levels compared to Adriamycin alone / relative effectiveness in activating adduct formation: 4 μM [14C] Adriamycin simultaneously with 100 μM aldehyde-releasing compound
Procedure: IMR-32 cells were seeded into 3.5 cm petri dishes at a density of 7.5×10^5 cells/dish 24 hr prior to exposure to 41M [^14C]-Adriamycin for 4 hr. In other treatments 100 μM AN-9 was added at varying times: 2 hr prior to Adriamycin addition (−2); simultaneously (O); and 2 hr after Adriamycin (2). Cells were harvested, and the genomic DNA was isolated. Samples were then extracted twice with phenol and once with chloroform, and DNA was selectively precipitated from RNA by ammonium acetate precipitation. DNA pellets were resuspended in 100 μL TE buffer, and the concentration determined spectrophotometically at 260 nm. Aliquots of the genomic DNA (50 μL) were each added to 1 mL of Optiphase Hisafe scintillation cocktail, and the incorporation of [^14C]-labelled drug into the DNA was monitored using a Wallac 1410 Liquid Scintillation Counter.
IMR-32 cells were exposed to 6 μM [^14C]-Adriamycin alone (Adr) for 4 hr, or together with 125 μl AN-9 at varying times: 16 hr prior (−16), 2 hr prior (−2), simultaneously (0), and 2 hr after Adriamycin addition (2). […] Genomic DNA was extracted from the cells, and incorporation of radiolabelled drug was determined by scintillation counting to determine the level of [^14C] adducts per 10 kb.
Therefore, IMR-32 cells were treated with 4 μM [^14C] Adriamycin and were simultaneously treated with 100 μM of selected aldehyde-releasing compound. Cells were harvested, genomic DNA was extracted and scintillation analyses were performed as described above.
To test whether a greater fraction of Adriamycin can be utilized for adduct formation when the amount of available formaldehyde is increased, the concentration dependence of AN-9 was investigated. IMR-32 cells were treated with [^14C] Adriamycin at a constant concentration of 4 μM. AN-9 was added 2 hr after Adriamycin at concentrations ranging from 4 μM (1:1) to 500 μM (1:125), and the treatment continued for a further 2 hr. Cells were harvested, DNA was extracted and samples were analysed for incorporation of [^14C].
Adducts (lesions/10 kb) were determined by incubating IMR-32 cells in the presence of 2 μM [^14C]Adriamycin for 2 hr. followed by an additional 2 hr in the presence or absence of 100 μM AN-9. Semi-carbazide addition was at the same time as Adriamycin (ie 2 hr before AN-9). However, values in parentheses indicate that semi-carbazide addition was at the same time as AN-9 treatment (ie 2 hr after Adriamycin).
Adriamycin for 4 hr. These were simultaneously incubated with the indicated aldehyde-releasing compound at a final concentration of 100 μM. Samples were harvested as indicated previously and DNA was assessed for incorporation of radioactively labelled Adriamycin.

[2] = tested on: mitochondrial genome and DHFR gene of IMR-32 cells; experiment: Gene-specific Southern hybridisation assay of DNA adducts / virtual crosslinks; assay type: cell-based, human; settings: for level of DNA adducts (percentage of double stranded DNA): IMR-32, Adriamycin alone, or Adriamycin with 25-fold excess of AN-9 (added 2 hr after or 2 hr before)
Procedure: We sought to investigate the level of DNA adducts formed under various treatment conditions, since we speculated that the peculiar effectiveness of the Adriamycin/AN-9 combination might be due to increased levels of DNA damage in the form of DNA adducts. IMR-32 human neuroblastoma cells (A and B) and MCF-7 human breast adenocarcinoma cells (C and D) were treated with Adriamycin for 2 hr ([…] as shown) followed by a further 2 hr incubation with a 25-fold excess of AN-9 (▪), or treated with AN-9 for 2 hr followed by a further 4 hr incubation with Adriamycin (□). Genomic DNA was isolated using mild conditions (Cutts et al., 2001) and subjected to gene-specific Southern hybridisation analysis. For detection of the mitochondrial genome, DNA was restriction digested with BamHI, and unreacted or intercalated drug was removed by phenol/chloroform extraction and ethanol precipitation. Samples were resuspended in 60% formamide and heat denatured at 60° C. for 5 min. Samples were resolved electrophoretically through 0.8% agarose, transferred to nylon membranes and probed with mitochondrial RNA. The percentage of double stranded DNA was calculated by phosphorimage analysis; this correlates with adduct formation in the mitochondrial genome (A and C), since the adducts behave functionally as virtual interstrand crosslinks (Zeman et al., 1998; Cullinane et al., 2000). For detection of the DHFR gene, DNA was digested with HindIII and processed as described above; however, randomly primed DHFR DNA was used as the probe for Southern analysis (B and D). Data were derived from each of two separate blots of two biological experiments, and the values are represented as the mean±SE. […] This provides a biochemical basis for the synergistic/antagonistic cytotoxicity relationship.
It was known that the formation of Adriamycin adducts was highly time-dependent. To confirm that the adducts behave as classical Adriamycin adducts, and also to investigate the optimal conditions for adduct formation, a time course study was initiated. IMR-32 cells were treated with a combination of 4 μM Adriamycin and 100 μM AN-9 for 0-8 hr as described above. Phosphorimage analysis was used to quantitate the time-dependent formation of adducts in the mitochondrial genome (A) and DHFR gene (B).
In order to gain some understanding as to why synergy was greatest when AN-9 was added at the same time as, or after, Adriamycin, a time course of addition of AN-9 was studied. IMR-32 cells were exposed to 4 μM Adriamycin for 4 hr. […] Adduct/crosslinking levels are shown in FIG. 3 for both mitochondrial (A) and nuclear (B) DNA, using probes for mtDNA and the DHFR gene respectively. Phosphorimage analysis was used to quantitate the fraction of DS DNA, a measure of adduct formation, for each treatment condition. Adduct formation fluctuated greatly, and depended on a relatively small time frame within which AN-9 was added to cells. […] This enabled us to predict that if AN-9 was added shortly after Adriamycin in cytotoxicity assays, within say approximately 2 hr, then the Combination Index obtained would be even better than when the drugs were added simultaneously.
IMR-32 cells were exposed to Adriamycin (6 μm) for 4 hr, and AN-9 (125 μM) was added at varying times from 24 hr prior to Adriamycin addition (−24) to 2 hr after Adriamycin. Genomic DNA was extracted from cells and then processed for Southern analysis. Phosphorimage analysis was used for quantitation of the adducts in mtDNA (A) and the DHFR gene (B), and the results are shown in FIG. 4.

[3] = tested on: mitochondrial genome and DHFR gene of MCF-7 cells; experiment: as above; assay type: cell-based, human; settings: Adriamycin alone, or Adriamycin with 25-fold excess of AN-9 (added 2 hr after or 2 hr before)
Procedure: We sought to investigate the level of DNA adducts formed under various treatment conditions, since we speculated that the peculiar effectiveness of the Adriamycin/AN-9 combination might be due to increased levels of DNA damage in the form of DNA adducts. IMR-32 human neuroblastoma cells (A and B) and MCF-7 human breast adenocarcinoma cells (C and D) were treated with Adriamycin for 2 hr ([…] as shown) followed by a further 2 hr incubation with a 25-fold excess of AN-9 (▪), or treated with AN-9 for 2 hr followed by a further 4 hr incubation with Adriamycin (□). Genomic DNA was isolated using mild conditions (Cutts et al., 2001) and subjected to gene-specific Southern hybridisation analysis. For detection of the mitochondrial genome, DNA was restriction digested with BamHI, and unreacted or intercalated drug was removed by phenol/chloroform extraction and ethanol precipitation. Samples were resuspended in 60% formamide and heat denatured at 60° C. for 5 min. Samples were resolved electrophoretically through 0.8% agarose, transferred to nylon membranes and probed with mitochondrial RNA. The percentage of double stranded DNA was calculated by phosphorimage analysis; this correlates with adduct formation in the mitochondrial genome (A and C), since the adducts behave functionally as virtual interstrand crosslinks (Zeman et al., 1998; Cullinane et al., 2000). […]

HL-60 cells = settings: cited from earlier work
IMR-32 cells = experiment: Cell viability assay, relative survival with semi-carbazide; assay type: cell-based, human; settings: IC50 relative to Adriamycin alone; 72 hr; presence or absence of 50 μM AN-9; no semi-carbazide
Procedure: To obtain data representing relative survival, cells were seeded at a density of 1×10^4 per well and exposed to increasing concentrations of Adriamycin in the presence or absence of 50 μM AN-9 and/or semi-carbazide (0.25, 0.5 or 1.0 mM as indicated) for 72 hr. IC50 values for various combinations are shown as relative survival compared to Adriamycin alone. […] Overall, the critical role of formaldehyde was confirmed by reversal of formaldehyde-mediated effects by semi-carbazide, which reduced adduct formation and also abolished the cytotoxicity resulting from the interaction of AN-9 with Adriamycin.

DNA = settings: cited from earlier work
[4] = 4 μM [14C] Adriamycin, 500 μM AN-9 (1:125) added 2 hr after
[5] = 6 μM [14C]-Adriamycin 4 hr, AN-9 16 hr prior to Adriamycin

**Q.** With `CCCC(=O)OCOP(=O)(OCC)OCC` [AN-7, Butyroyloxymethyldiethyl Phosphate] as the molecule, how does the “adduct levels compared to Adriamycin alone” value [1] read?
**A.** enhanced adduct levels

**Q.** What about the “relative effectiveness in activating adduct formation” value [1] of the same molecule?
**A.** good activity

**Q.** Which adduct/crosslinking levels ([2]; 4 μM Adriamycin 4 hr, 100 μM AN-9 added shortly after Adriamycin, compared with simultaneous addition) does the source give for `CCCC(=O)OCOC(=O)C(C)(C)C` [AN-9, Pivaloyloxymethyl Butyrate] here?
**A.** greatly enhanced levels of adducts

**Q.** What about the “enhancement of adduct levels” value ([2]; Adriamycin (6 μm) 4 hr, AN-9 (125 μM) administered 5-24 hr prior to Adriamycin) of the same molecule?
**A.** no enhancement of adduct levels

**Q.** What about the “level of DNA adducts (percentage of double stranded DNA)” value [2] of the same molecule?
**A.** dramatic increases in the level of DNA adducts

**Q.** What about the “effect on the ability of barminomycin to induce DNA crosslinks” value ([2]; barminomycin 0-20 nM, 12,500-fold excess of AN-9, added after or 2 hr before barminomycin) of the same molecule?
**A.** no effect

**Q.** What about the “level of DNA adducts (percentage of double stranded DNA)” value [3] of the same molecule?
**A.** dramatic increases in the level of DNA adducts

**Q.** What about the “adduct levels compared to Adriamycin alone” value [1] of the same molecule?
**A.** enhanced adduct levels

**Q.** And the “relative effectiveness in activating adduct formation” value [1]?
**A.** most effective

**Q.** And the “total Adriamycin added to cells incorporated into DNA adducts” value ([1]; 4 μM [14C] Adriamycin, 500 μM AN-9)?
**A.** approximately 5%

**Q.** And the “adduct levels relative to the 1:20-1:25 ratio” value [1, 4]?
**A.** approximately 10 fold

**Q.** What about the “potentiation of Adriamycin adduct levels” value [1, 4] of the same molecule?
**A.** approximately 100 fold

**Q.** What about the Adriamycin adducts ([1]; 4 μM [14C] Adriamycin, AN-9 added 2 hr after, further 2 hr, Adriamycin:AN-9 1:20-1:25) of the same molecule?
**A.** 10 adducts per 10 kb

**Q.** And the “enhancement of adduct formation” value ([1]; 4 μM [14C] Adriamycin, AN-9 added 2 hr after, Adriamycin:AN9 1:1-1:5)?
**A.** poor

**Q.** And the “levels of Adriamycin adducts” value [1, 5]?
**A.** 1.7 /10 kb

**Q.** What about the “loss of adducts compared to Adriamycin alone” value [1, 5] of the same molecule?
**A.** 40%

**Q.** And the “enhancement of adducts compared to Adriamycin alone” value ([1]; 6 μM [14C]-Adriamycin 4 hr, AN-9 added 2 hr after Adriamycin)?
**A.** approximately 20 fold

**Q.** What about the “level of Adriamycin adducts” value ([1]; 41M [14C]-Adriamycin 4 hr, 100 μM AN-9 2 hr after Adriamycin) of the same molecule?
**A.** ~24 per 10 kb

**Q.** What about the “level of Adriamycin adducts” value ([1]; 41M [14C]-Adriamycin 4 hr, 100 μM AN-9 2 hr prior to Adriamycin) of the same molecule?
**A.** ~3.5 per 10 kb

**Q.** What about the “potentiation of the level of Adriamycin adducts” value ([1]; 41M [14C]-Adriamycin 4 hr, 100 μM AN-9, vs Adriamycin alone) of the same molecule?
**A.** up to 15 fold

**Q.** And the “level of Adriamycin adducts” value ([1]; 41M [14C]-Adriamycin 4 hr, 100 μM AN-9 simultaneously)?
**A.** approximately 12 per 10 kb

**Q.** And the histone acetylation (HL-60 cells)?
**A.** induce histone acetylation

**Q.** What about the “time after exposure at which basal level of acetylation is re-established” value (HL-60 cells) of the same molecule?
**A.** 6 h

**Q.** With `CCCC(=O)OC(C)OP(=O)(OCC)OCC` (stereo not drawn) [AN-88, 1-Butyroyloxyethyldiethyl Phosphate] as the molecule, how does the “adduct levels compared to Adriamycin alone” value [1] read?
**A.** reinforced the concept that it was the released formaldehyde which was solely responsible for increased adduct formation

**Q.** With `CCC(=O)OC(C)OC(=O)CC` [AN-188, Ethylidene Dipropionate] as the molecule, how does the “adduct levels compared to Adriamycin alone” value [1] read?
**A.** reinforced the concept that it was the released formaldehyde which was solely responsible for increased adduct formation

**Q.** Which “level of DNA adducts (percentage of double stranded DNA)” value [2] does the source give for `COc1cccc2c1C(=O)c1c(O)c3c(c(O)c1C2=O)C[C@@](O)(C(=O)CO)C[C@@H]3O[C@H]1C[C@H](N)[C@H](O)[C@H](C)O1` [Adriamycin, reference compound] here?
**A.** no adducts were detected

**Q.** And the “level of DNA adducts (percentage of double stranded DNA)” value [3]?
**A.** no adducts were detected

**Q.** What about the Relative survival (IMR-32 cells) of the same molecule?
**A.** 1.00 ± 0.12

**Q.** And the “levels of Adriamycin adducts” value ([1]; 6 μM [14C]-Adriamycin alone 4 hr)?
**A.** 2.8 /10 kb

**Q.** What about the “level of Adriamycin adducts” value ([1]; 41M [14C]-Adriamycin 4 hr, absence of AN-9) of the same molecule?
**A.** approximately 1.5 per 10 kb

**Q.** What about the “half-life of Adriamycin adducts” value (DNA) of the same molecule?
**A.** 5 to 40 h

**Q.** For `CCCC(=O)O` [Butyric acid, reference compound], which “increase in Adriamycin adduct levels” value ([1]; 6 μM [14C]-Adriamycin 4 hr, sodium butyrate (1 mM) 16 hr prior, 2 hr prior, simultaneously or 2 hr after) is on record?
**A.** no significant increases in adduct levels

**Q.** With `C1N2CN3CN1CN(C2)C3` [hexamethylenetetramine, reference compound] as the molecule, how does the “facilitation of Adriamycin adduct formation” value ([2]; 15 μM Adriamycin, 4 hr later 0-2.5 mM hexamethylenetetramine, harvested after 8 hr) read?
**A.** not as effective as AN-9
